Reference: US20150105252A1, “SUBSTITUTED PYRAZOLES AS HERBICIDES” (E I DU PONT DE NEMOURS AND COMPANY, priority 2013, published 2015)

Key:
wheat = test: Test C preemergence; assay type: in vivo, Triticum aestivum
Outline: (§1)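 Postemergence values come from plants sprayed at the 1- to 4-leaf stage (2–18 cm) in peat moss–vermiculite medium; preemergence values from seeds treated in a loam–sand blend. Both evaluated visually against controls after 13–15 greenhouse days, scale 0–100.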

oilseed rape = test: Test C preemergence; assay type: in vivo, Brassica napus
Outline: as §1

soybean = test: Test C preemergence; assay type: in vivo, Glycine max
Outline: as §1

velvetleaf [1] = test: Test C preemergence; assay type: in vivo, Abutilon theophrasti
Outline: as §1

johnsongrass [2] = test: Test C preemergence; assay type: in vivo, Sorghum halepense
Outline: as §1

chickweed = test: Test C postemergence; assay type: in vivo, Stellaria media
Outline: as §1

blackgrass = test: Test C postemergence; assay type: in vivo, Alopecurus myosuroides
Outline: as §1

velvetleaf [3] = test: Test C postemergence; assay type: in vivo, Abutilon theophrasti
Outline: as §1

morningglory = test: Test C postemergence; assay type: in vivo, Ipomoea coccinea
Outline: as §1

galium = test: Test C preemergence; assay type: in vivo, Galium aparine
Outline: as §1

barnyardgrass = test: Test C preemergence; assay type: in vivo, Echinochloa crus-galli
Outline: as §1

lambsquarters = test: Test C preemergence; assay type: in vivo, Chenopodium album
Outline: as §1

crabgrass, large [4] = test: Test A postemergence; assay type: in vivo, Digitaria sanguinalis
Outline: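 Visual injury rating, 0–100 (0 no effect, 100 complete control), vs untreated controls ~10 days after treatment in greenhouse. Pre: directed soil spray on seeded loam/sand. Post: 2–10 cm plants, 1–2 leaf stage. Formulation: non-phytotoxic solvent mix + surfactant.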

johnsongrass [5] = test: Test C postemergence; assay type: in vivo, Sorghum halepense
Outline: as §1

crabgrass, large [6] = test: Test C postemergence; assay type: in vivo, Digitaria sanguinalis
Outline: as §1

[7] = preemergence, 31 g ai/ha, visual rating, scale 0 to 100 (0 no effect, 100 complete control), 13 to 15 days
[8] = preemergence, 62 g ai/ha, 13 to 15 days, scale 0 to 100, 0 = no effect, 100 = complete control
[9] = preemergence, 125 g ai/ha, scale 0 to 100, 0 is no effect, 100 is complete control
[10] = Postemergence, 31 g ai/ha, visually evaluated after 13 to 15 days
[11] = postemergence, 62 g ai/ha, scale 0 to 100
[12] = postemergence, 250 g ai/ha, scale 0 to 100 (0 no effect, 100 complete control)
[13] = postemergence, 125 g ai/ha, scale 0 to 100, 0 no effect, 100 complete control

Question: How did the “Plant response rating (scale of 0 to 100), Wheat” value (wheat; Preemergence, 250 g ai/ha) turn out when CCCc1cc(C(=O)NCC)nn1Cc1ccnc(C(F)(F)F)c1 [Compound 95] was run?
Answer: The value was 90.

Question: And the “Wheat plant response rating” value (wheat; [7])?
Answer: The value was 5.

Question: What about the “Plant response rating, Wheat” value (wheat; [8]) of the same compound?
Answer: Its value is 55.

Question: And the “Wheat plant response rating” value (wheat; [9])?
Answer: Its value is 60.

Question: And the “Plant response rating (scale of 0 to 100), Oilseed Rape” value (oilseed rape; Preemergence, 250 g ai/ha)?
Answer: The value was 100.

Question: And the “Oilseed Rape plant response rating” value (oilseed rape; [7])?
Answer: The value was 100.

Question: What about the “Plant response rating, Oilseed Rape” value (oilseed rape; [8]) of the same compound?
Answer: The value was 100.

Question: What about the “Oilseed Rape plant response rating” value (oilseed rape; [9]) of the same compound?
Answer: Its value is 100.

Question: What about the “Plant response rating (scale of 0 to 100), Soybean” value (soybean; Preemergence, 250 g ai/ha) of the same compound?
Answer: Its value is 98.

Question: And the “Soybean plant response rating” value (soybean; [7])?
Answer: Its value is 80.

Question: And the “Plant response rating, Soybean” value (soybean; [8])?
Answer: The value was 90.

Question: What about the “Soybean plant response rating” value (soybean; [9]) of the same compound?
Answer: The value was 95.

Question: What about the “Plant response rating (scale of 0 to 100), Velvetleaf” value (velvetleaf [1]; Preemergence, 250 g ai/ha) of the same compound?
Answer: The value was 100.

Question: And the “Velvetleaf plant response rating” value (velvetleaf [1]; [7])?
Answer: The value was 50.

Question: What about the “Plant response rating, Velvetleaf” value (velvetleaf [1]; [8]) of the same compound?
Answer: Its value is 100.

Question: And the “Velvetleaf plant response rating” value (velvetleaf [1]; [9])?
Answer: The value was 100.

Question: What about the “Plant response rating (scale of 0 to 100), Johnsongrass” value (johnsongrass [2]; Preemergence, 250 g ai/ha) of the same compound?
Answer: Its value is 100.

Question: And the “Johnsongrass plant response rating” value (johnsongrass [2]; [7])?
Answer: The value was 60.

Question: And the “Plant response rating, Johnsongrass” value (johnsongrass [2]; [8])?
Answer: The value was 85.

Question: What about the “Johnsongrass plant response rating” value (johnsongrass [2]; [9]) of the same compound?
Answer: The value was 95.

Question: What about the “Plant response rating (scale of 0 to 100 where 0 is no effect and 100 is complete control), Chickweed” value (chickweed; [10]) of the same compound?
Answer: The value was 85.

Question: What about the “Chickweed plant response rating” value (chickweed; [11]) of the same compound?
Answer: Its value is 100.

Question: What about the “Plant response rating, Chickweed” value (chickweed; [12]) of the same compound?
Answer: The value was 100.

Question: And the “Plant response rating, Chickweed” value (chickweed; [13])?
Answer: The value was 100.

Question: And the “Plant response rating (scale of 0 to 100 where 0 is no effect and 100 is complete control), Blackgrass” value (blackgrass; [10])?
Answer: The value was 5.

Question: And the “Blackgrass plant response rating” value (blackgrass; [11])?
Answer: The value was 5.

Question: And the “Plant response rating, Blackgrass” value (blackgrass; [12])?
Answer: Its value is 35.

Question: And the “Plant response rating, Blackgrass” value (blackgrass; [13])?
Answer: The value was 15.

Question: What about the “Plant response rating (scale of 0 to 100 where 0 is no effect and 100 is complete control), Velvetleaf” value (velvetleaf [3]; [10]) of the same compound?
Answer: Its value is 10.

Question: What about the “Velvetleaf plant response rating” value (velvetleaf [3]; [11]) of the same compound?
Answer: The value was 15.

Question: What about the “Plant response rating, Velvetleaf” value (velvetleaf [3]; [12]) of the same compound?
Answer: Its value is 40.

Question: And the “Plant response rating, Velvetleaf” value (velvetleaf [3]; [13])?
Answer: The value was 35.

Question: What about the “Plant response rating (scale of 0 to 100 where 0 is no effect and 100 is complete control), Morningglory” value (morningglory; [10]) of the same compound?
Answer: The value was 50.

Question: And the “Morningglory plant response rating” value (morningglory; [11])?
Answer: Its value is 50.

Question: What about the “Plant response rating, Morningglory” value (morningglory; [12]) of the same compound?
Answer: Its value is 70.

Question: What about the “Plant response rating, Morningglory” value (morningglory; [13]) of the same compound?
Answer: The value was 50.

Question: And the “Plant response rating (scale of 0 to 100), Galium” value (galium; Preemergence, 250 g ai/ha)?
Answer: Its value is 100.

Question: And the “Galium plant response rating” value (galium; [7])?
Answer: The value was 100.

Question: And the “Plant response rating, Galium” value (galium; [8])?
Answer: The value was 100.

Question: What about the “Galium plant response rating” value (galium; [9]) of the same compound?
Answer: The value was 100.

Question: What about the “Plant response rating (scale of 0 to 100), Barnyardgrass” value (barnyardgrass; Preemergence, 250 g ai/ha) of the same compound?
Answer: The value was 100.

Question: What about the “Barnyardgrass plant response rating” value (barnyardgrass; preemergence, 31 g ai/ha, scale 0 to 100 (0 no effect, 100 complete control), 13 to 15 days) of the same compound?
Answer: The value was 100.

Question: What about the “Plant response rating, Barnyardgrass” value (barnyardgrass; [8]) of the same compound?
Answer: Its value is 100.

Question: What about the “Barnyardgrass plant response rating” value (barnyardgrass; [9]) of the same compound?
Answer: The value was 100.

Question: And the “Plant response rating (scale of 0 to 100), Lambsquarters” value (lambsquarters; Preemergence, 250 g ai/ha)?
Answer: Its value is 100.

Question: And the “Lambsquarters plant response rating” value (lambsquarters; [7])?
Answer: The value was 100.

Question: And the “Plant response rating, Lambsquarters” value (lambsquarters; [8])?
Answer: The value was 100.

Question: What about the “Lambsquarters plant response rating” value (lambsquarters; [9]) of the same compound?
Answer: Its value is 100.

Question: And the “Crabgrass, Large plant response rating” value (crabgrass, large [4]; Postemergence, 500 g ai/ha, visual rating after approx. 10 days, 0 to 100 scale (0 no effect, 100 complete control))?
Answer: Its value is 100.

Question: And the “Crabgrass, Large plant response rating” value (crabgrass, large [4]; postemergence, 125 g ai/ha, about 10 days, visual rating on 0 to 100 scale (0 no effect, 100 complete control))?
Answer: Its value is 90.

Question: And the “Plant response rating (scale of 0 to 100 where 0 is no effect and 100 is complete control), Johnsongrass” value (johnsongrass [5]; [10])?
Answer: Its value is 0.

Question: And the “Johnsongrass plant response rating” value (johnsongrass [5]; [11])?
Answer: The value was 0.

Question: And the “Plant response rating, Johnsongrass” value (johnsongrass [5]; [12])?
Answer: The value was 30.

Question: What about the “Plant response rating, Johnsongrass” value (johnsongrass [5]; [13]) of the same compound?
Answer: Its value is 5.

Question: What about the “Plant response rating (scale of 0 to 100 where 0 is no effect and 100 is complete control), Crabgrass, Large” value (crabgrass, large [6]; [10]) of the same compound?
Answer: Its value is 5.

Question: What about the “Crabgrass, Large plant response rating” value (crabgrass, large [6]; [11]) of the same compound?
Answer: The value was 10.

Question: And the “Plant response rating, Crabgrass, Large” value (crabgrass, large [6]; [12])?
Answer: Its value is 45.

Question: And the “Plant response rating, Crabgrass, Large” value (crabgrass, large [6]; [13])?
Answer: Its value is 40.
